Data: PMC10269561, “Absence of Clinically Meaningful Drug-Drug Interactions with Rezafungin: Outcome of Investigations” (Microbiology Spectrum, 2023)
Read-outs that look alike come from different tables or passages of the source.

What was measured:
[1] = Study 2: phase 1 open-label crossover DDI study, plasma PK of oral immunosuppressant/oncology drugs alone vs with i.v. rezafungin; details: for Magnitude of decrease in Cmax with rezafungin vs drug alone / AUC0–t, geometric mean ratio (drug + rezafungin / drug alone) / AUC0–∞, geometric mean ratio (drug + rezafungin / drug alone) / Cmax, geometric mean ratio (drug + rezafungin / drug alone): mycophenolic acid analyte for mycophenolate mofetil; for AUC0–t, geometric mean ratio (drug + rezafungin / drug alone) / AUC0–∞, geometric mean ratio (drug + rezafungin / drug alone) / Cmax, geometric mean ratio (drug + rezafungin / drug alone): rezafungin 200 mg i.v., geometric LSM ratio x 100, ANOVA
Experimental: (§1) Both were phase 1, single-center, open-label, crossover inpatient studies that were conducted in the United States in healthy adults (study 1, aged 26 to 55 years; study 2, aged 21 to 59 years). The studies were compliant with the International Council for Harmonisation of Technical Requirements for Pharmaceuticals for Human Use E6 guideline for good clinical practice ([54]) and the Declaration of Helsinki. The study protocols were approved by the institutional review board associated with the study site, and all subjects provided written informed consent.
(§2) After screening, subjects were admitted to the CRU on day −17 (prior to the first rezafungin dose) and were discharged on day 22. Rezafungin was dosed via i.v. infusion over 1 h at 400 mg on day 1 and 200 mg on day 8 and day 15. The oral drugs to be tested for interactions were each administered twice on a schedule designed to allow washout between doses: once alone and once while receiving rezafungin (Fig. 4B). The total duration of treatment was approximately 84 days, which included 45 days of screening and 39 days of treatment in the CRU.
(§3) In study 1, predose PK blood samples were collected on each dosing day ≤60 min prior to the administration of the substrate drugs with or without rezafungin. Multiple blood samples were collected relative to each dose, with collection times ranging from 15 min to 168 h postdose, depending on the PK profile of each probe substrate drug (Table S5). For study 2, multiple blood samples were collected, and the timing of collection varied according to the PK profile of each coadministered drug from predose to 96 h postdose (Table S6). PK blood samples were collected for rezafungin at sample times ranging from predose to 168 h postdose.
(§4) For both studies, validated liquid chromatography-tandem mass spectrometry (LC-MS/MS) methods were used for PK assessments to analyze the concentrations of rezafungin and coadministered drugs. All plasma concentrations and actual blood sampling times were subjected to noncompartmental PK analysis. PK parameter calculations were performed using noncompartmental analysis (NCA) (Phoenix WinNonlin version 8.0 or higher). The PK parameters analyzed included Cmax; the time to reach the maximum observed plasma concentration (Tmax); AUC0–t (using the log-linear trapezoidal rule, where t was the last time point with a measurable concentration); AUC0–∞ (calculated as AUC0–t + Clast/λz); the AUC from 0 to 168 h (AUC0–168); the percentage of AUC0–∞ extrapolated (AUC%Extrap); the terminal elimination rate constant, determined by linear regression of the terminal linear segment of the log concentration-versus-time curve (λz); and the elimination half-life (t1/2), calculated as ln(2)/λz.
(§5) The primary analysis of the drug interaction effect on substrate drugs following rezafungin administration was assessed by the ratio of the geometric least-squares (LS) mean of each substrate drug administered with rezafungin to that without rezafungin. […] PK parameters were statistically analyzed using an analysis of variance (ANOVA) model. […] However, noncompliance with these no-effect boundaries was not considered evidence of a significant DDI. Statistical analyses were performed using SAS (version 9.4) and the mixed procedure. Adverse events were descriptively summarized.

[2] = Experimental: as §1
After screening, subjects were admitted to the clinical research unit (CRU) prior to the first dose of rezafungin (from day −22) and were discharged from the CRU on day 22. Nine oral substrate drugs were administered as part of a cocktail containing two or more drugs once before and once after receiving rezafungin on a schedule designed to allow the washout of the drugs in the cocktail between doses and limit interactions with other drugs (Fig. 4A). […] A loading dose of rezafungin for injection (600 mg) was administered over 1 h on day 1, followed by two once-weekly 400-mg doses over 1 h on days 10 and 15. Due to a short delay in the availability of the investigation study drug, the second once-weekly dose of rezafungin and the second set of oral substrate drugs were administered on day 10 instead of day 8, although the time between doses remained sufficient for all originally planned PK samplings through 96 h postdose and for the adequate washout of the substrate drugs. The total duration of treatment was up to 89 days, including 45 days of screening and 44 days of treatment in the CRU.
as §3, §4, §5

[3] = Study 2 safety and tolerability (TEAEs); details: Study 2; one subject each
Experimental: as §2
In both studies, the safety population included all subjects who received any amount of the study drug. In study 1, the rezafungin safety population included all subjects who received any amount of rezafungin. Safety assessments included vital signs (temperature, heart rate, blood pressure, and respiratory rate), safety laboratory evaluations (hematology assessment, serum chemistry panel, and urinalysis), physical examinations (complete and symptom directed), and EKGs.
Microbiology Spectrum Supplementary materials
Abbreviations: TEAE = treatment-emergent adverse event.
N = number of subjects in the safety population; n = number of subjects in a sample.
Notes: Each TEAE was counted only once for each subject within each System Organ Class and Preferred Term.

[4] = clinical study, U.S. prescribing information; cited from earlier work
[5] = Study 2, from geometric mean ratio
[6] = Study 2, healthy subjects, oral cyclosporine 200 mg, ibrutinib 280 mg or mycophenolate mofetil 500 mg (analyte mycophenolic acid) without rezafungin, plasma, LC-MS/MS, NCA
[7] = Study 2, healthy subjects, oral ibrutinib 280 mg (day 8) or mycophenolate mofetil 500 mg (day 15, cohort 1; analyte mycophenolic acid) with i.v. rezafungin 200 mg, plasma, LC-MS/MS, NCA
[8] = Study 1, healthy subjects, oral tacrolimus 5 mg or rosuvastatin 5 mg without rezafungin, plasma, LC-MS/MS, NCA
[9] = Study 1, healthy subjects, oral tacrolimus 5 mg with i.v. rezafungin 600 mg (day 1), plasma, LC-MS/MS, NCA
[10] = Study 1, rezafungin 600 mg i.v., geometric LSM ratio x 100, ANOVA
[11] = Study 2, healthy subjects (cohort 2), oral venetoclax 50 mg with i.v. rezafungin 200 mg (day 15), plasma, LC-MS/MS, NCA
[12] = Study 2, healthy subjects (cohort 2), oral venetoclax 50 mg without rezafungin, plasma, LC-MS/MS, NCA

Compound: C=CC(=O)N1CCC[C@@H](n2nc(-c3ccc(Oc4ccccc4)cc3)c3c(N)ncnc32)C1 [Ibrutinib]
- Magnitude of decrease in Cmax with rezafungin vs drug alone [1, 5]: ~17%

Compound: COc1c(C)c2c(c(O)c1C/C=C(\C)CCC(=O)OCCN1CCOCC1)C(=O)OC2 [Mycophenolate mofetil]
- AUC0–t, geometric LSM value, alone [1, 6]: 25,299.70 ng · h/mL
- AUC0–∞, geometric LSM value, alone [1, 6]: 27,954.20 ng · h/mL
- Cmax, geometric LSM value, alone [1, 6]: 9,541.20 ng/mL
- AUC0–t, geometric LSM value, + rezafungin [1, 7]: 25,054.90 ng · h/mL
- AUC0–∞, geometric LSM value, + rezafungin [1, 7]: 28,257.00 ng · h/mL
- Cmax, geometric LSM value, + rezafungin [1, 7]: 7,740.58 ng/mL
- Observation, AUC (change with rezafungin relative to drug alone) ([1]; Study 2, class symbol, AUC0–t and AUC0–∞ unless otherwise noted): ↔ (no change (the ratio of the PK parameter value varied by up to ~10%, and the 90% CI was within 80 to 125%))
- AUC0–t, geometric mean ratio (drug + rezafungin / drug alone) ([1]; Study 2): 99.03%
- AUC0–∞, geometric mean ratio (drug + rezafungin / drug alone) ([1]; Study 2): 101.08%
- Cmax, geometric mean ratio (drug + rezafungin / drug alone) ([1]; Study 2): 81.13%

Compound: COc1c(C)c2c(c(O)c1C/C=C(\C)CCC(=O)O)C(=O)OC2 [Mycophenolic acid]
- Magnitude of decrease in Cmax with rezafungin vs drug alone [1, 5]: 19%

Compound: C=CC[C@@H]1/C=C(\C)C[C@H](C)C[C@H](OC)[C@H]2O[C@@](O)(C(=O)C(=O)N3CCCC[C@H]3C(=O)O[C@H](/C(C)=C/[C@@H]3CC[C@@H](O)[C@H](OC)C3)[C@H](C)[C@@H](O)CC1=O)[C@H](C)C[C@@H]2OC [Tacrolimus]
- AUC0–t, geometric LSM value, alone [2, 8]: 309,698.20 pg · h/mL
- AUC0–∞, geometric LSM value, alone [2, 8]: 328,990.49 pg · h/mL
- Cmax, geometric LSM value, alone [2, 8]: 30,489.62 pg/mL
- AUC0–t, geometric LSM value, + rezafungin [2, 9]: 266,002.13 pg · h/mL
- AUC0–∞, geometric LSM value, + rezafungin [2, 9]: 283,328.47 pg · h/mL
- Cmax, geometric LSM value, + rezafungin [2, 9]: 28,909.40 pg/mL
- Magnitude of decrease in AUC with rezafungin vs drug alone ([2]; Study 1, AUC0–t and AUC0–∞, from geometric mean ratio): ~14%
- Observation, Cmax (change with rezafungin relative to drug alone) ([2]; Study 1, class symbol): ↔ (no change (the ratio of the PK parameter value varied by up to ~10%, and the 90% CI was within 80 to 125%))
- AUC0–t, geometric mean ratio (drug + rezafungin / drug alone) [2, 10]: 85.89%
- AUC0–∞, geometric mean ratio (drug + rezafungin / drug alone) [2, 10]: 86.12%
- Cmax, geometric mean ratio (drug + rezafungin / drug alone) [2, 10]: 94.82%

Compound: CC1(C)CCC(CN2CCN(c3ccc(C(=O)NS(=O)(=O)c4ccc(NCC5CCOCC5)c([N+](=O)[O-])c4)c(Oc4cnc5[nH]ccc5c4)c3)CC2)=C(c2ccc(Cl)cc2)C1 [Venetoclax]
- severe TEAE deemed by the investigator to be related to the drug [3]: abdominal pain
- AUC0–t, geometric LSM value, + rezafungin [1, 11]: 2,693.83 pg · h/mL
- AUC0–∞, geometric LSM value, + rezafungin [1, 11]: 2,781.57 pg · h/mL
- AUC0–t, geometric LSM value, alone [1, 12]: 3,004.70 pg · h/mL
- AUC0–∞, geometric LSM value, alone [1, 12]: 3,082.58 pg · h/mL
- Magnitude of decrease in AUC with rezafungin vs drug alone ([1]; Study 2, AUC0–t and AUC0–∞, from geometric mean ratio): ~10%
- Observation, Cmax (change with rezafungin relative to drug alone) ([1]; Study 2, class symbol): ↔ (no change (the ratio of the PK parameter value varied by up to ~10%, and the 90% CI was within 80 to 125%))
- AUC0–t, geometric mean ratio (drug + rezafungin / drug alone) ([1]; Study 2): 89.65%
- AUC0–∞, geometric mean ratio (drug + rezafungin / drug alone) ([1]; Study 2): 90.24%
- Cmax, geometric mean ratio (drug + rezafungin / drug alone) ([1]; Study 2): 94.84%

Compound: Caspofungin
- increase in AUC of caspofungin by cyclosporine [4]: approximately 35%
- reduction of trough concentrations of caspofungin by rifampicin [4]: 30%
